Measurements reported in patent publication US6462023B1, “Cytostatic agents” (British Biotech Pharmaceuticals, Ltd., priority 1988, dated 2002).
Like-named read-outs stand apart in the source and are kept apart here.

Tests used:
[1] = test system: histiocytic lymphoma (U937); experiment: cell proliferation assay ([methyl-3H] thymidine incorporation), U937; assay type: cell-based, human; settings: Homo sapiens, U-937, 72 hours in culture, n=6, read-out: U937: percentage of control 3[H] Thymidine incorporation
Experimental: (§1) Two human cell lines namely a histiocytic lymphoma (U937) and a melanoma (RPMI-7951) were seeded into 30 mm^2 tissue culture wells, in the appropriate culture medium supplemented with 10% fetal calf serum at a density of 250 cells/mm^2. Six hours later the test compounds were added in the same culture medium to the cells to give a final concentration of 6 μM. Control wells contained cells supplemented with the same culture medium containing the equivalent amount of drug vehicle, which in this case was DMSO at a final concentration of 0.08%. After 72 hours in culture the cells were pulsed for 3 hours with [methyl-^3[H] Thymidine] (2 μCi/ml) and then harvested onto filter mats and DNA associated radioactivity counted. Results are expressed as percentage of control ^3[H] Thymidine incorporation (n=6±1 stdv).
Further examples were tested in the U937 assay described above at 6 μM and the results, expressed as percentage of control ^3[H] Thymidine incorporation (n=6±1 stdv), are set out in the following Table 2.
as §1, with “A” for “Two”, “line,” for “lines”, “(U937), was” for “(U937) and a melanoma (RPMI-7951) were”, “30MM^2” for “30 mm^2”, “cellS/MM^2.” for “cells/mm^2.”, “were” for “are”

melanoma (RPMI-7951) = experiment: cell proliferation assay ([methyl-3H] thymidine incorporation), RPMI-7951; assay type: cell-based, human; settings: Table 1; final concentration 6 μM; 72 hours in culture, 3 hours pulse; n=6
Experimental: as §1

[2] = Table 1, final concentration 6 μM, 3 hours pulse

| Structure (SMILES) | activity at 6 µM [1, 2] | RPMI: percentage of control 3[H] Thymidine incorporation (melanoma (RPMI-7951)) | activity at 6 µM ([1]; Table 2, 6 μM) |
| --- | --- | --- | --- |
| C=CC[C@H](C(=O)NO)[C@@H](CC(C)C)C(=O)N[C@@H](Cc1ccccc1)C(=O)OC [Example 1, 2S-(3S-Hydroxycarbamoyl-2R-isobutyl-hex-5-enoylamino)-3-phenylpropionic acid methyl ester] | 7% | 40 percentage of control |  |
| C=CC[C@H](C(=O)NO)[C@@H](CC(C)C)C(=O)N[C@@H](Cc1ccccc1)C(=O)OCC [Example 2, 2S-(3S-Hydroxycarbamoyl-2R-isobutyl-hex-5-enoylamino)-3-phenylpropionic acid ethyl ester] | 7% | 37 percentage of control |  |
| C=CC[C@H](C(=O)NO)[C@@H](CC(C)C)C(=O)N[C@@H](Cc1ccccc1)C(=O)OC(C)C [Example 3, 2S-(3S-Hydroxycarbamoyl-2R-isobutyl-hex-5-enoylamino)-3-phenylpropionic acid isopropyl ester] | 2.5% | 27 percentage of control |  |
| COC(=O)[C@H](Cc1ccccc1)NC(=O)[C@H](CC(C)C)[C@H](C)C(=O)NO [Example 5, 3R-(2-Phenyl-1S-methylcarboxy-ethylcarbamoyl)-2S, 5-dimethylhexanohydroxamic acid] | 19% | 82 percentage of control |  |
| C=CC[C@H](C(=O)NO)[C@@H](CC(C)C)C(=O)N[C@@H](Cc1ccccc1)C(=O)OC1CCN(C)CC1 [Example 29, 2S-(3S-Hydroxycarbamoyl-2R-isobutyl-hex-5-enoylamino)-3-phenylpropionic acid 1-methyl-piperidin-4-yl ester] |  |  | 49% |
| C=CC[C@H](C(=O)NO)[C@@H](CC(C)C)C(=O)N[C@@H](Cc1ccccc1)C(=O)OC(CC)CC [Example 30, 2S-(3S-Hydroxycarbamoyl-2R-isobutyl-hex-5-enoylamino)-3-phenylpropionic acid 1-ethyl-propyl ester] |  |  | 6% |
| C=CC[C@H](C(=O)NO)[C@@H](CC(C)C)C(=O)N[C@@H](Cc1ccccc1)C(=O)O[C@@H](C)CCC [Example 31, 2S-(3S-Hydroxycarbamoyl-2R-isobutyl-hex-5-enoylamino)-3-phenylpropionic acid 1S-methyl-butyl ester] |  |  | 7% |
| C=CC[C@H](C(=O)NO)[C@@H](CC(C)C)C(=O)N[C@@H](Cc1ccccc1)C(=O)OC1CCCCC1 [Example 32, 2S-(3S-Hydroxycarbamoyl-2R-isobutyl-hex-5-enoylamino)-3-phenylpropionic acid cyclohexyl ester] |  |  | 0% |
| C=CC[C@H](C(=O)NO)[C@@H](CC(C)C)C(=O)N[C@@H](Cc1ccccc1)C(=O)O[C@H](C)CCC [Example 34, 2S-(3S-Hydroxycarbamoyl-2R-isobutyl-hex-5-enoylamino)-3-phenylpropionic acid 1R-methyl-butyl ester] |  |  | 3% |
| C=CC[C@H](C(=O)NO)[C@@H](CC(C)C)C(=O)N[C@@H](Cc1ccccc1)C(=O)OC1CCOC1 (stereo partly drawn) [Example 35, 2S-(3S-Hydroxycarbamoyl-2R-isobutyl-hex-5-enoylamino)-3-phenylpropionic acid tetrahydro-furan-3(R, S)-yl ester] |  |  | 14% |
| C=CC[C@H](C(=O)NO)[C@@H](CC(C)C)C(=O)N[C@H](C(=O)OC1CCCC1)C(C)(C)C [Example 36, 2S-(3S-Hydroxycarbamoyl-2R-isobutyl-hex-5-enoylamino)-3,3-dimethyl-butyric acid cyclopentyl ester] |  |  | 51% |
| CC(C)C[C@@H](C(=O)N[C@@H](Cc1ccccc1)C(=O)OC1CCCC1)[C@@H](C(=O)NO)C1CCCC1 [Example 37, 2S-[2R-(1S-Cyclopentyl-hydroxycarbamoyl-methyl)-4-methyl-pentanoylamino]-3-phenyl-propionic acid cyclopentyl ester] |  |  | 0% |
| C#CC[C@@H](C(=O)N[C@@H](Cc1ccccc1)C(=O)OC1CCCC1)[C@H](O)C(=O)NO [Example 38, 2S-[2R-(1S-Hydroxy-hydroxycarbamoyl-methyl)-pent-4-ynoylamino]-3-phenylpropionic acid cyclopentyl ester] |  |  | 37% |
| C=CC[C@H](C(=O)NO)[C@@H](CC(C)C)C(=O)N[C@@H](Cc1cccnc1)C(=O)OC1CCCC1 [Example 39, 2S-(3S-Hydroxycarbamoyl-2R-isobutyl-hex-5-enoylamino)-3-pyridin-3-yl-propionic acid cyclopentyl ester] |  |  | 26% |
| C=CC[C@H](C(=O)NO)[C@@H](CC(C)C)C(=O)N[C@@H](COC(C)(C)C)C(=O)OC1CCCC1 [Example 40, 3-tert-Butoxy-2S-(3S-hydroxcarbamoyl-2R-isobutyl-hex-5-enoylamino)-propionic acid cyclopentyl ester] |  |  | 0% |
| C=CC[C@H](C(=O)NO)[C@@H](CC(C)C)C(=O)N[C@H](C(=O)OC1CCCC1)c1ccccc1 [Example 41, 2S-(3S-Hydroxycarbamoyl-2R-isobutyl-hex-5-enoylamino)-2-phenylethanoic acid cylcopentyl ester] |  |  | 0% |
| O=C(OC1CCCC1)[C@H](Cc1ccccc1)NC(=O)[C@H](CC#Cc1ccccc1Cl)[C@H](O)C(=O)NO [Example 42, 2S-[5-(2-Chlorophenyl)-2R-(1S-hydroxy-hydroxycarbamoyl-methyl)-pent-4-ynoylamino]-3-phenylpropionic acid cyclopentyl ester] |  |  | 0% |
